Measured values taken from ChEMBL document CHEMBL1201862, “PubChem BioAssay data set” (2004).
The source made the active and inactive calls.

How the values were obtained:
[1] = biological target: T1, Coagulation factor XII (Homo sapiens, UniProt P00748); test: Factor XIIa Dose Response Confirmation from Single Well HTS. [Related pubchem assays (depositor defined):AID701]; type: functional
T1 sequence (P00748 whole entry): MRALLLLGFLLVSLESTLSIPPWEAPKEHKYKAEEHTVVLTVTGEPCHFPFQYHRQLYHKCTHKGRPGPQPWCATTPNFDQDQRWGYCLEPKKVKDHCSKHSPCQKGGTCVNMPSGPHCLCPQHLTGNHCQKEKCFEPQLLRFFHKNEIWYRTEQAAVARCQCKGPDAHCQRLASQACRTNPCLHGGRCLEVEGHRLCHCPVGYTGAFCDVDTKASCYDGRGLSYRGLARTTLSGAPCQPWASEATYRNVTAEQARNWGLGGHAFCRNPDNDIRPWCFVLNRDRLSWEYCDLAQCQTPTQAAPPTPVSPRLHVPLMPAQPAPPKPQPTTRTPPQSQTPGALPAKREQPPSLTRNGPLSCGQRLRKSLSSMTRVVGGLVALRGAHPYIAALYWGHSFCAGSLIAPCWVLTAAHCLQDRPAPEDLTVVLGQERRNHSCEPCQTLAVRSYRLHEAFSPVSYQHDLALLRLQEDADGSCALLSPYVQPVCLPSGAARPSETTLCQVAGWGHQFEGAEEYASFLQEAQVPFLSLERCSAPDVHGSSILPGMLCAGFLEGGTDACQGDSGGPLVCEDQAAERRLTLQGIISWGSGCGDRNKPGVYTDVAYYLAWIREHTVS

[2] = biological target: Hexokinase (Trypanosoma brucei, UniProt Q38C41); test: Confirmation assay for inhibitors of Trypanosoma brucei hexokinase 1-Analogue-first series. [Related pubchem assays (depositor defined):AID1430, AID1632, AID2516, AID2560, AID2579, AID2600, AID449725, AID492951]; type: functional
[3] = test system: HEK293; test: cells; type: functional, cell-based; conditions: Homo sapiens
[4] = biological target: Nucleotide-binding oligomerization domain-containing protein 2 (Homo sapiens, UniProt Q9HC29); test: inhibition of NOD2-driven NF-kB reporter – cell-based, luminescence, uHTS, HEK293 (AID 1566); type: functional
[5] = test system: HEK293; test: NOD2 signaling inhibitors in MDP-stimulated cells, cell-based, uHTS, luminescence (AID 2001); type: functional; conditions: Homo sapiens
[6] = test system: HEK293; test: inhibition of NOD1-driven NF-kB reporter – cell-based, luminescence, uHTS, primary screen (AID 1578); type: functional; conditions: Homo sapiens
[7] = biological target: Major prion protein (Homo sapiens, UniProt P04156); type: functional, cell-based
[8] = test system: HEK293; test: cells; type: functional, cell-based; conditions: Homo sapiens; remark: listed apart in the source
[9] = test system: HEK293; test: cells; type: functional, cell-based; conditions: Homo sapiens; remark: listed apart in the source
[10] = cells
[11] = biological target: T1, Coagulation factor XII; test: activated coagulation factor XII inhibitor potency, concentration-effect curve, cell-free (AID 716); type: functional
[12] = biological target: Mu-type opioid receptor (Homo sapiens, UniProt P35372); test: SAR Analysis of Antagonists of the MOR Receptor using an Image-Based Assay - Set 3. [Related pubchem assays (depositor defined):AID1777, AID1785, AID1786, AID1966, AID2133, AID2136, AID2284, AID2285, AID2420]; type: functional
[13] = biological target: T2, Kappa-type opioid receptor (Homo sapiens, UniProt P41145); test: SAR analysis of Antagonists of the Kappa Opioid Receptor (KOR) using an Image-Based Assay - Set 3. [Related pubchem assays (depositor defined):AID1777, AID1785]; type: functional
[14] = biological target: Delta-type opioid receptor (Homo sapiens, UniProt P41143); test: SAR Analysis of Antagonists of the DOR Receptor using an Image-Based Assay - Set 3. [Related pubchem assays (depositor defined):AID1777, AID1785]; type: functional;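 note: U2OS cells expressing DOR1 and beta-arrestin GFP stimulated with 100 nM SNC80; imaging of GFP-tagged beta-arrestin moving into spots after receptor activation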
[15] = biological target: T2, Kappa-type opioid receptor; test: SAR analysis of small molecule antagonists of the kappa opioid receptor via a luminescent beta-arrestin assay - Set 3. [Related pubchem assays (depositor defined):AID1777, AID1778, AID1785, AID1786, AID1966, AID2133, AID2136, AID2285, AID2495]; type: functional
[16] = biological target: Transitional endoplasmic reticulum ATPase (Homo sapiens, UniProt P55072, C522A); test: C522A mutant p97 ATPase inhibitors, dose response, counter-screen for p97 inhibitor project, biochemical, luminescence (AID 1544)
[17] = biological target: X-box-binding protein 1 (Homo sapiens, UniProt P17861); type: functional, Cricetulus griseus;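 note: confirmatory dose-response counter-screen serving a CHOP assay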
[18] = biological target: Transitional endoplasmic reticulum ATPase (Homo sapiens, UniProt P55072); test: p97 ATPase inhibitors, dose response, biochemical (AID 1534)
[19] = Luminescence Cell-Based Dose Retest to Confirm Inhibitors of Cancer Stem Cells. [Related pubchem assays (depositor defined):AID2717, AID2721]; type: functional; conditions: Homo sapiens
[20] = biological target: DNA damage-inducible transcript 3 protein (Mus musculus, UniProt P35639); type: functional, Cricetulus griseus
[21] = biological target: Ion channel NompC (Danio rerio, UniProt Q7T1G6); test: Dose response cell-based high-throughput screening assay for agonists of the transient receptor potential channel N1 (TRPN1). [Related pubchem assays (depositor defined):AID1424, AID1448]; type: functional
[22] = NIH3T3 cell viability loss – ATP luminescence, mouse fibroblasts, counter-screen, dose response (AID 2010); type: functional, cell-based;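 note: cells exposed to compound for about 90 hours before reading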
[23] = test system: Vero; test: cells; type: functional, cell-based; conditions: Chlorocebus sabaeus
[24] = Trypanosoma cruzi growth suppression in host cells – NIH3T3 host cells, beta-gal luminescence, confirmation (AID 2044); type: functional, cell-based;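 note: intracellular parasites grown in NIH/3T3 mouse fibroblasts as host cells; luminescent beta-galactosidase reporter signal from transgenic T. cruzi replicating inside host cells; inhibitors lower the luminescence signal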
[25] = test system: Vero; test: cells; type: functional; conditions: Chlorocebus sabaeus
[26] = biological target: T3, Short transient receptor potential channel 4 (Mus musculus, UniProt Q9QUQ5); test: calcium entry via TRPC4 opening agents – cell-based, HEK293 TRPC4/mu-opioid, Fluo-4 calcium, dose response (AID 434937); type: functional
T3 sequence (Q9QUQ5 whole entry): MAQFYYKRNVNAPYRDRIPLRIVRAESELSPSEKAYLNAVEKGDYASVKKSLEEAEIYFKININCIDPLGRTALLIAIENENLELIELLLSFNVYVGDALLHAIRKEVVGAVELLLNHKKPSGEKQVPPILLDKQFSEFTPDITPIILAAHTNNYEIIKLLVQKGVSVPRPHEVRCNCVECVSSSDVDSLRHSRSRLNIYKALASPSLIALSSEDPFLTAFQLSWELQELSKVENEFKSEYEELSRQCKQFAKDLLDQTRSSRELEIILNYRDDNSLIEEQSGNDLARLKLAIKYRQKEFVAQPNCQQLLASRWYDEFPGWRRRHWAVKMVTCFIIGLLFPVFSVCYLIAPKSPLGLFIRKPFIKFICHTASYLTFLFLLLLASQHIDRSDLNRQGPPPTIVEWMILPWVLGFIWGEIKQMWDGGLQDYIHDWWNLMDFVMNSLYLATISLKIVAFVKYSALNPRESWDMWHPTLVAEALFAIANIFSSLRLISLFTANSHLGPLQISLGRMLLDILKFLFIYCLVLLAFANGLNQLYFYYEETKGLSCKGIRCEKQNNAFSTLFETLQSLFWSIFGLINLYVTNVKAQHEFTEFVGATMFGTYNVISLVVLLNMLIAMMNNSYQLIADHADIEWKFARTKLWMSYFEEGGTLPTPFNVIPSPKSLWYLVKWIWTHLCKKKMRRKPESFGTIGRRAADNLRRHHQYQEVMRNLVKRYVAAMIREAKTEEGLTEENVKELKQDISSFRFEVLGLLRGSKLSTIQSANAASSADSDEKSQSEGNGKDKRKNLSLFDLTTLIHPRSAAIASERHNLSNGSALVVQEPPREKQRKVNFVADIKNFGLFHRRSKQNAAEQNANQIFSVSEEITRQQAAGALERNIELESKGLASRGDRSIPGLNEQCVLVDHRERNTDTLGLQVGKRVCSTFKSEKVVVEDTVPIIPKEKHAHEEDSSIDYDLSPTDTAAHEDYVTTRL

[27] = biological target: Luciferin 4-monooxygenase (Photinus pyralis, UniProt P08659); test: inhibition of purified Photinus pyralis luciferase – biochemical, luminescence, dose response (AID 1891)
[28] = Luminescence Cell-Based Dose Confirmation HTS to Identify Inhibitors of Platelet Dense Granule Release. [Related pubchem assays: 1663 (Primary HTS), 1678 (Summary of Project)]; type: functional
[29] = biological target: Mucolipin-3 (Homo sapiens, UniProt Q8TDD5); test: Fluorescence counterscreen assay for […] agonists: dose response cell-based high-throughput screening assay to identify agonists of the transient receptor potential channel ML3 (TRPML3). [Related pubchem assays: 1424, 1448 ]; type: functional
[30] = biological target: T4, Cannabinoid receptor 2 (Homo sapiens, UniProt P34972); test: SAR analysis of agonists of the Cannabinoid Receptor 2 using an Image-Based Assay - Set 2. [Related pubchem assays (depositor defined):AID1961, AID1965]; type: functional
[31] = biological target: T5, G-protein coupled receptor 35 (Homo sapiens, UniProt Q9HC97); test: SAR analysis of Agonists of the GPR35 Receptor using an Image-Based Assay - Set 3. [Related pubchem assays (depositor defined):AID1961, AID1965]; type: functional
[32] = biological target: T4, Cannabinoid receptor 2; test: SAR analysis of antagonists of the Cannabinoid Receptor 2 using an Image-Based Assay - Set 2. [Related pubchem assays (depositor defined):AID1961, AID1965]; type: functional
[33] = biological target: T5, G-protein coupled receptor 35; test: SAR analysis of Antagonists of the GPR35 Receptor using an Image-Based Assay - Set 4. [Related pubchem assays (depositor defined):[…]]; type: functional
[34] = biological target: T6, Cannabinoid receptor 1 (Homo sapiens, UniProt P21554); test: SAR analysis of antagonists of the Cannabinoid Receptor 1 using an Image-Based Assay - Set 3. [Related pubchem assays (depositor defined):AID1961, AID1965]; type: functional
[35] = biological target: T6, Cannabinoid receptor 1; test: SAR analysis of agonists of the Cannabinoid Receptor 1 using an Image-Based Assay - Set 3. [Related pubchem assays (depositor defined):AID1961, AID1965]; type: functional
[36] = biological target: G-protein coupled receptor 55 (Homo sapiens, UniProt Q9Y2T6); test: SAR analysis of selective Agonists of GPR55 using an Image-Based Assay - Set 2. [Related pubchem assays (depositor defined):AID1961, AID1965]; type: functional
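Throughout, for AC50: cells exposed to compound for roughly 70 hours or longer before luminescence read.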

COc1ccc(/C=c2/sc3n(c2=O)NC2(c4ccccc4)N(C)C(=O)N(C)C2(c2ccccc2)N=3)cc1 (stereo unspecified)
IC50 [1]: > 50 µM (inactive)

COc1ccccc1-n1sc2ccccc2c1=O
IC50 [2]: 7.9 µM (active)

Cc1nc2c(Br)cc(Br)cc2cc1O
IC50 [3]: > 20 µM (inactive)
EC50 [4]: 13.2 µM (active)
IC50 [5]: 6.68 µM (active)
EC50 [6]: 11.4 µM (active)
IC50 [7]: 1.36 µM (active)
IC50 [8]: > 20 µM (inactive)
IC50 [9]: 6.3 µM (active)
IC50 [10]: > 138 µM (inactive)

CC(C)CCn1c(=S)[nH]c2ncccc2c1=O
IC50 [11]: > 50 µM (inactive)

Cc1cccc(S(=O)(=O)NCc2ccc(C(=O)NCCN(Cc3ccccc3)Cc3ccccc3)cc2)c1
IC50 [12]: > 32 µM (inactive)
IC50 [13]: > 32 µM (inactive)
IC50 [14]: > 32 µM (inactive)
IC50 [15]: > 20 µM (inactive)

Cc1cc(Nc2ccccc2)nc(-c2ccccc2O)n1
IC50 [16]: > 50 µM (not active)
Absolute IC50 (XBP1) [17]: < 10 µM
IC50 [18]: > 50 µM (not active)
AC50 [19]: 5.64 µM (active)
Absolute IC50 (CHOP) [20]: 10 µM

CC(C)(C)c1ccc(C(=O)NC(=S)NNC(=O)c2cccs2)cc1
EC50 [21]: 168 nM (active)
EC50 [22]: 13.5 µM (active)
IC50 [23]: > 12.5 µM (active)
EC50 [24]: 2.15 µM (active)
CC50 [25]: 17.4 µM (active)
EC50 [26]: 1.5 µM (active)
EC50 [27]: > 112 µM (not active)
EC50 [28]: 24.5 µM (active)
EC50 [29]: 292 nM (active)

COc1ccc(S(=O)(=O)N2CCOCC2)cc1NC(=O)c1ccc2c(c1)OCO2
EC50 [30]: > 32 µM (inactive)
EC50 [31]: > 32 µM (inactive)
IC50 [32]: > 32 µM (inactive)
IC50 [33]: > 32 µM (inactive)
IC50 [34]: > 32 µM (inactive)
EC50 [35]: > 32 µM (inactive)
EC50 [36]: 18 µM (inactive)
